Structures can show the parent of a compound that is named as a salt.
biological target: T1, NS3/NS4A-2 (Hepatitis C virus genotype 1a, UniProt P27958); test: NS3 inhibition assay (NS3-NS4 protease assay); format: biochemical, hepatitis C virus (HCV); conditions: recombinant full-length NS3 (E. coli or Baculovirus) complexed with NS4A-2; RETS1 substrate
T1 construct: Recombinant E. coli or Baculovirus full-length NS3 was diluted to 3.33 μM with assay buffer; made in house; host or cells: E. coli or Baculovirus (insect cells)
T1 sequence (P27958 1027-1657): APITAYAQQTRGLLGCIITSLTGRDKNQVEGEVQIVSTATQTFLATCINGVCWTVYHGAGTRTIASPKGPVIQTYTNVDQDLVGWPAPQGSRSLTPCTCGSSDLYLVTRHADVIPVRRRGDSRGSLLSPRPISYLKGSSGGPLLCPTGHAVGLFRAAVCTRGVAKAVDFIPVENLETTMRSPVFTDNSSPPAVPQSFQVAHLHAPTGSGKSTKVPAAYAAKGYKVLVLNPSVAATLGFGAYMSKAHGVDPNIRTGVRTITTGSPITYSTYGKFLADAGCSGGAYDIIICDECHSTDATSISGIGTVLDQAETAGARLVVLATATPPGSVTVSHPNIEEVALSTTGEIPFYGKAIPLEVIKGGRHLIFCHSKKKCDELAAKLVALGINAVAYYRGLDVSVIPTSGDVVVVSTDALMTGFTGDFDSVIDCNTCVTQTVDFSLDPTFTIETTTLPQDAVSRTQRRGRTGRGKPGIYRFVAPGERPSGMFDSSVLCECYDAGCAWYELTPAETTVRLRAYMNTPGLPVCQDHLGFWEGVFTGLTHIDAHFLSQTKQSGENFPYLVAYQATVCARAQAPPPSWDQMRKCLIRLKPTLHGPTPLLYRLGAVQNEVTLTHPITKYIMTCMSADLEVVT
Description: NS3 Complex Formation with NS4A-2.
Recombinant E. coli or Baculovirus full-length NS3 was diluted to 3.33 μM with assay buffer and transferred material to an eppendorf tube and place in water bath in 4° C. refrigerator. The appropriate amount of NS4A-2 to 8.3 mM in assay buffer was added to equal the volume of NS3 in step 2.1.1 (conversion factor—3.8 mg/272 μL assay buffer). The material was transferred to an eppendorf tube and place in water bath in 4° C. refrigerator.
After equilibration to 4° C., equal volumes of NS3 and NS4A-2 solutions were combined in an eppendorf tube, mix gently with a manual pipettor, and incubate mixture for 15 minutes in the 4° C. water bath. Final concentrations in the mixture are 1.67 μM NS3, 4.15 mM NS4A-2 (2485-fold molar excess NS4A-2).
After 15 minutes at 4° C., the NS3/NS4A-2 eppendorf tube was removed and place it in a room temperature water bath for 10 minutes. NS3/NS4A-2 was alliquoted at appropriate volumes and store at −80° C. (E. coli NS3 run at 2 nM in assay, aliquot at 25 μL. BV NS3 run at 3 nM in assay, aliquot at 30 μL).
Sample compounds were dissolved to 10 mM in DMSO then diluted to 2.5 mM (1:4) in DMSO. Typically, compounds were added to an assay plate at 2.5 mM concentration, yielding upon dilution a starting concentration of 50 microM in the assay inhibition curve. Compounds were serial diluted in assay buffer to provide test solutions at lower concentrations.
The E. coli. NS3/NS4A-2 was diluted to 4 nM NS3 (1:417.5 of 1.67 μM stock−18 μL 1.67 μM stock+7497 μL assay buffer). The BV NS3/NS4A-2 was diluted to 6 nM NS3 (1:278.3 of 1.67 μM stock−24 μL 1.67 μM stock+6655 μL assay buffer). Using the manual multichannel pipettor, careful not to introduce bubbles into the plate, add 50 μL assay buffer to wells A01-H01 of a black Costar 96-well polypropylene storage plate.
Using the manual multichannel pipettor, careful not to introduce bubbles into the plate, add 50 μL of diluted NS3/NS4A-2 from step 2.2.6 to wells A02-H12 of plate in step 2.2.7. Using the manual multichannel pipettor, careful not to introduce bubbles into the plate, transfer 25 μL of the wells in drug dilution plate in step 2.2.5 to corresponding wells in assay plate in step 2.2.8. Change tips on multichannel pipettor for each row of compounds transferred. Using the manual multichannel pipettor, careful not to introduce bubbles into the plate, mix the wells from the assay plate in step 2.2.9 by aspirating and dispensing 35 μL of the 75 μL in each well five times. Change tips on multichannel pipettor for each row of wells mixed. Cover plate with a polystyrene plate lid and pre-incubate the plate from step 2.2.10 containing NS3 protease and sample compounds 10 minutes at room temperature. While plate from step 2.2.11 is pre-incubating, dilute RETS1 substrate in a 15 mL polypropylene centrifuge tube. Dilute RETS1 substrate to 8 μM (1:80.75 of 646 μM stock−65 μL 646 μM stock+5184 μL assay buffer).
After the plate in step is done pre-incubating, and using the manual multichannel, add 25 μL of substrate to all wells on the plate. Quickly mix the plate as in step 2.2.10, mixing 65 μL of the 100 μL in the wells.
Read the plate in kinetic mode on the Molecular Devices SpectraMax Gemini XS plate reader. Reader settings: Read time: 30 minutes, Interval: 36 seconds, Reads: 51, Excitation λ: 335 nm, Emission λ: 495 nm, cutoff: 475 nm, Automix: off, Calibrate: once, PMT: high, Reads/well: 6, Vmax pts: 21 or 28/51 depending on length of linearity of reaction
IC50s are determined using a four parameter curve fit equation, and converted to Ki's using the following Km's: Full-length E. coli NS3−2.03 μM Full-length BV NS3−1.74 μM
where Ki=IC50/(1+[S]/Km))

Question: Which IC50 does the source give for `C=C[C@@H]1C[C@]1(NC(=O)[C@@H]1C[C@@H](OC(=O)N2Cc3cccc(F)c3C2)CN1C(C)=O)C(=O)NS(=O)(=O)C1CC1` [Compound 90, (3R,5S)-1-acetyl-5-((1R,2S)-1-(cyclopropylsulfonylcarbamoyl)-2-vinylcyclopropylcarbamoyl)pyrrolidin-3-yl 4-fluoroisoindoline-2 carboxylate] here?
Answer: < 0.1 µM

Question: Which IC50 does the source give for `O=C(O)CNC(=O)C1CCCc2c[nH]nc21` (stereo not shown) [Compound 101] here?
Answer: 10 to 50 µM

Question: For `C=C[C@@H]1C[C@]1(NC(=O)C1CN(C(=O)OC(C)(C)C)Cc2c[nH]nc21)C(=O)NS(=O)(=O)C1CC1` (mixture of isomers) [Compound 104, Tert-butyl 7-((1R,2S)-1-(cyclopropylsulfonylcarbamoyl)-2-vinylcyclopropylcarbamoyl)-6,7-dihydro-2H-pyrazolo[4,3-c]pyridine-5(4H)-carboxylate], which IC50 is on record?
Answer: 10 to 50 µM

Question: Which IC50 does the source give for `CCC[C@H](NC(=O)C1CNCc2c[nH]nc21)C(=O)NS(=O)(=O)C1CC1` (stereo partly shown) [Compound 107] here?
Answer: 10 to 50 µM

Question: Which IC50 does the source give for `O=C(O)C1CNCc2c[nH]nc21` (stereo not shown) [Compound 110] here?
Answer: 1 to 10 µM

Question: `C=C[C@@H]1C[C@]1(NC(=O)[C@@H]1C[C@@H](OC(=O)N2Cc3cccc(F)c3C2)CN1C(=O)CNC(=O)OC(C)(C)C)C(=O)NS(=O)(=O)C1CC1` [Compound 91] was tested. Which IC50 did it give?
Answer: 0.1 to 1 µM

Question: With `C=C[C@@H]1C[C@]1(NC(=O)C1CN(C(=O)Cc2ccccc2)Cc2c[nH]nc21)C(=O)NS(=O)(=O)C1CC1` (stereo partly drawn) [Compound 103, N-((1R,2S)-1-(cyclopropylsulfonylcarbamoyl)-2-vinylcyclopropyl)-5-(2-phenylacetyl)-4,5,6,7-tetrahydro-2H-pyrazolo[4,3-c]pyridine-7-carboxamide] as the compound, how does the IC50 read?
Answer: 1 to 10 µM

Question: Which IC50 does the source give for `O=C(NC1(C(=O)NS(=O)(=O)C2CC2)CCC1)C1CNCc2c[nH]nc21` (stereo not shown) [Compound 112] here?
Answer: 1 to 10 µM

Question: How did the IC50 turn out when `CCC[C@H](NC(=O)C1CN(C(=O)Cc2ccccc2)Cc2c[nH]nc21)C(=O)NS(=O)(=O)C1CC1` (stereo partly shown) [Compound 106] was run?
Answer: 10 to 50 µM

Question: For `C=C[C@@H]1C[C@]1(NC(=O)C1CNCc2c[nH]nc21)C(=O)NS(=O)(=O)C1CC1` (stereo partly drawn) [Compound 111, N-((1R,2S)-1-(cyclopropylsulfonylcarbamoyl)-2-vinylcyclopropyl)-4,5,6,7-tetrahydro-2H-pyrazolo[4,3-c]pyridine-7-carboxamide hydrochloride], which IC50 is on record?
Answer: 10 to 50 µM

Question: `O=C(O)CNC(=O)C1CN(C(=O)Cc2ccccc2)Cc2c[nH]nc21` (stereo not shown) [Compound 108] was tested. Which IC50 did it give?
Answer: 1 to 10 µM

Question: With `O=C(CNC(=O)C1CCCc2c[nH]nc21)NS(=O)(=O)C1CC1` (stereo not shown) [Compound 102] as the compound, how does the IC50 read?
Answer: 1 to 10 µM

Question: How did the IC50 turn out when `O=C(CNC(=O)C1CNCc2c[nH]nc21)NS(=O)(=O)C1CC1` (stereo not shown) [Compound 109] was run?
Answer: 10 to 50 µM

From patent US7781474B2, “Inhibitors of hepatitis C virus replication” (InterMune, Inc., priority 2006, dated 2010)
